In brackets after ≈: the same amount, converted by molar mass.
Legend:
[1] = biological target: T1, PKR (Homo sapiens, UniProt P19525); test: radiometric HotSpot kinase assay; type: biochemical; details: for inhibition at 10 µM: 10 μM compound, 10 μM ATP, read-out: % Enzyme inhibition at 10 μM, PKR; for IC50: means of two independent experiments
T1 construct: purchased Reaction Biology Corporation (Malvern, PA)
Description: (§1) Compounds 1–9 were screened in a radiometric […] kinase assay against human GCN2 and other kinases involved in the UPR and ISR pathways (Table 1). […] The most soluble of the potent tool compounds (1 and 2) were selected for in vitro cell-based assays where the phosphorylation of eIF2α (p-eIF2α) was used as a readout for GCN2 inhibition.
(§2) In vitro compound profiling for recombinant GCN2, PERK, HRI, PKR, or IRE1 kinases were performed at Reaction Biology Corporation (Malvern, PA) using the HotSpot kinase assay. Briefly, all compounds provided for testing were dissolved in 10 mM DMSO stock solutions. Serial dilutions were conducted by epMotion 5070 in DMSO. Specific kinase/substrate mixtures and required cofactors were prepared in reaction buffer (20 mM Hepes (pH 7.5), 10 mM MgCl2, 1 mM EGTA, 0.02% Brij35, 0.02 mg/ml BSA, 0.1 mM Na3VO4, 2 mM DTT, 1% DMSO). Compounds were added to the kinase reaction mixture by Acoustic technology (Echo550; nanoliter range) and incubated for 20 min at room temperature. The kinase reaction was initiated by adding ^33P ATP to a final concentration of 10 μM for single point kinase activity reading or to the ATP Km of GCN2 for IC50 readings. The reaction was incubated or 2 h at room temperature and kinase activity was detected by filter-binding method. IC50 values and curves were generated with GraphPad Prism 7 (GraphPad software).

[2] = biological target: T2, HRI (Homo sapiens, UniProt Q9BQI3); test: radiometric HotSpot kinase assay; type: biochemical; details: 10 μM compound, 10 μM ATP; read-out: % Enzyme inhibition at 10 μM, HRI
T2 construct: purchased Reaction Biology Corporation (Malvern, PA)
T2 sequence (Q9BQI3 whole entry): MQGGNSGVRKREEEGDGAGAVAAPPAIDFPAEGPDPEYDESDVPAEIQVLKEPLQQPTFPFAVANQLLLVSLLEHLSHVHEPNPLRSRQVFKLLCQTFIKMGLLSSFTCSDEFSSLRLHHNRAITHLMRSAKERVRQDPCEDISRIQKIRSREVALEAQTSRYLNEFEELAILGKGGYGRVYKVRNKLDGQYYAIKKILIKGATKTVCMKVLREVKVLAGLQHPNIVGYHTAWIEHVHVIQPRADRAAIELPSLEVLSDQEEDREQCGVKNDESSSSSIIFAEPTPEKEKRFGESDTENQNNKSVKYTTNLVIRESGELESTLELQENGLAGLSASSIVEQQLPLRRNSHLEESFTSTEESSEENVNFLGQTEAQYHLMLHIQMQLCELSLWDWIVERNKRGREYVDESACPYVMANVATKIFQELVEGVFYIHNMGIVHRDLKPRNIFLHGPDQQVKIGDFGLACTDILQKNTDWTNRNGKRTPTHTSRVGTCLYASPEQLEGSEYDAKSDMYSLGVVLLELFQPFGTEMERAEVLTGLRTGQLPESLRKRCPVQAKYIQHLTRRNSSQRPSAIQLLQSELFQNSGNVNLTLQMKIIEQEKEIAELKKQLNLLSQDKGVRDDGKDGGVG
Description: as §1, §2

[3] = biological target: T3, IRE1 (Homo sapiens, UniProt O75460); test: radiometric HotSpot kinase assay; type: biochemical; details: 10 μM compound, 10 μM ATP; read-out: % Enzyme inhibition at 10 μM, IRE1
T3 construct: purchased Reaction Biology Corporation (Malvern, PA)
T3 sequence (O75460 19-977): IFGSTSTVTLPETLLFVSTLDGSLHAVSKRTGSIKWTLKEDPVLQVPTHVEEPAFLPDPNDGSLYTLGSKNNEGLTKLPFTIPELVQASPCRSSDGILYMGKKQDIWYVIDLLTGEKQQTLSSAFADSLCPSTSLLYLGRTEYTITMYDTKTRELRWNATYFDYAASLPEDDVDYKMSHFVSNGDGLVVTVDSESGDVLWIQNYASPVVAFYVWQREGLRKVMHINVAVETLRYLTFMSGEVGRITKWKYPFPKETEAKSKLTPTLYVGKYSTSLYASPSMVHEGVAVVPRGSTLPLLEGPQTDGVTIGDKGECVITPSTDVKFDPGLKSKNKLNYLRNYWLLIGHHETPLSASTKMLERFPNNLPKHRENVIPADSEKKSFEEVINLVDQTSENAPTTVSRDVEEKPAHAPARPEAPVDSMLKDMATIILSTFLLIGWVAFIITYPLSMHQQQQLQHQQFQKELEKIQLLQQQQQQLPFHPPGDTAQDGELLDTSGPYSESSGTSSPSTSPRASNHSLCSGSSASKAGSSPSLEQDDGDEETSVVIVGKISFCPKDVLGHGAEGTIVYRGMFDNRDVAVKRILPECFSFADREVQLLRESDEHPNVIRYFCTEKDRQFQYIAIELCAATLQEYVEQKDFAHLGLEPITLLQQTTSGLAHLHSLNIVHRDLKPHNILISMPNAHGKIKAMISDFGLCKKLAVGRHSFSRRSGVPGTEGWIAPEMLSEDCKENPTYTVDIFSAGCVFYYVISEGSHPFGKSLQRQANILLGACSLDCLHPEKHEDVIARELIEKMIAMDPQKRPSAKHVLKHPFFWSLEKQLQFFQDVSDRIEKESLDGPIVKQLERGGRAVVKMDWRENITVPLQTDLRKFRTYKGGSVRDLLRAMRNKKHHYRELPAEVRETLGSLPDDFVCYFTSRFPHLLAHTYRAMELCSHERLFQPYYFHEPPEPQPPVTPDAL
Description: as §1, §2

[4] = Kinetic solubility assay; type: physicochemical; details: for solubility (in words): PBS pH 7.4; for solubility at 2 h: aqueous buffer, kinetic from dmso stock, PBS pH 7.4, 25 °C
Description: Compound solubility was determined in PBS at pH 7.4 by Pharmaron, Inc. (Beijing, China). Briefly, all compounds and control solutions were prepared in DMSO at concentrations of 10 mM. Diclofenac was used as a positive control. 10 μL or 30 μL of each compound was added into a 96-well plate, followed by adding 990 μL or 970 μL, respectively, of PBS at pH 7.4. A stir stick was added to each well and wells were sealed using a molded PTDE/SIL 96-Well Plate Cover. […] After incubation the samples were transferred into the filter plate and filtered by Vacuum Manifold. The filtered samples were diluted with methanol to obtain 3 μM standards (STD). The samples were analyzed by LC-MS/MS against a standard of known concentration in DMSO. The solubility values of duplicate test compounds were calculated in Microsoft Excel using the following equation, where DF means dilution factor: Sample=AREASample×INJVOLStd×DFSample×STD/AREAStd×INJVOLSample

[5] = biological target: T4, PERK (Homo sapiens, UniProt Q9NZJ5); test: radiometric HotSpot kinase assay; type: biochemical; details: 10 μM compound, 10 μM ATP; read-out: % Enzyme inhibition at 10 μM, PERK
T4 construct: purchased Reaction Biology Corporation (Malvern, PA)
T4 sequence (Q9NZJ5 30-1116): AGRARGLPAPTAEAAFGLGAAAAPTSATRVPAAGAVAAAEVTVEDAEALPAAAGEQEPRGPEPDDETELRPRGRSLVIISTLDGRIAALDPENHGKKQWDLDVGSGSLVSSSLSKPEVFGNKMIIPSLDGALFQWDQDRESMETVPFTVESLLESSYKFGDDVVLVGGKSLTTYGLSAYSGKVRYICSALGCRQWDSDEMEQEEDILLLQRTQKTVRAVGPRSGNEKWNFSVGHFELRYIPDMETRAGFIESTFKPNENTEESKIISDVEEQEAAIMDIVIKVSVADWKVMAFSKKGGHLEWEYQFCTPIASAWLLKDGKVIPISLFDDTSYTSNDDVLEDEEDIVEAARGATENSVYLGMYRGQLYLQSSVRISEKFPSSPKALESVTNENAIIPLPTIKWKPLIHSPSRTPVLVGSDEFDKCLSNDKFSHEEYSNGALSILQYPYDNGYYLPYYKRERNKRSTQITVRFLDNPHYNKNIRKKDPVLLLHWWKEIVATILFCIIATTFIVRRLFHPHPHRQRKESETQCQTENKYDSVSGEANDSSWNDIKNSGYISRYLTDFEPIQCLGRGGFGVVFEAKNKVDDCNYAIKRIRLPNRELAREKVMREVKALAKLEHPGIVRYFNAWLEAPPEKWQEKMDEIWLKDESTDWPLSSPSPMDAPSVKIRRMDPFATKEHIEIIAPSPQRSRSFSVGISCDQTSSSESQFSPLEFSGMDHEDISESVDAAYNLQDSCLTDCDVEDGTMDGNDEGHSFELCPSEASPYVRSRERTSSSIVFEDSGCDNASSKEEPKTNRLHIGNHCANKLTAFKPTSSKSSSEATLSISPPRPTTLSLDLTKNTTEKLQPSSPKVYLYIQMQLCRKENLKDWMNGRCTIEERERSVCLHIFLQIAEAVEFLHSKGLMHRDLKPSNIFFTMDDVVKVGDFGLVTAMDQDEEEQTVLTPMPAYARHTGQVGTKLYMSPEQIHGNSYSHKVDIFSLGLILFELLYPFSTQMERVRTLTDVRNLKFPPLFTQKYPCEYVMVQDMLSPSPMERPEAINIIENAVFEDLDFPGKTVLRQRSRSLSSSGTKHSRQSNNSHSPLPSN
Description: as §2, with “Serial dilutions were conducted by epMotion 5070 in DMSO.” left out, “The kinase reaction was initiated by adding ^33P ATP to a final concentration of 10 μM for single point kinase activity reading or to the ATP Km of GCN2 for IC50 readings.” left out

T1 sequence (P19525 whole entry): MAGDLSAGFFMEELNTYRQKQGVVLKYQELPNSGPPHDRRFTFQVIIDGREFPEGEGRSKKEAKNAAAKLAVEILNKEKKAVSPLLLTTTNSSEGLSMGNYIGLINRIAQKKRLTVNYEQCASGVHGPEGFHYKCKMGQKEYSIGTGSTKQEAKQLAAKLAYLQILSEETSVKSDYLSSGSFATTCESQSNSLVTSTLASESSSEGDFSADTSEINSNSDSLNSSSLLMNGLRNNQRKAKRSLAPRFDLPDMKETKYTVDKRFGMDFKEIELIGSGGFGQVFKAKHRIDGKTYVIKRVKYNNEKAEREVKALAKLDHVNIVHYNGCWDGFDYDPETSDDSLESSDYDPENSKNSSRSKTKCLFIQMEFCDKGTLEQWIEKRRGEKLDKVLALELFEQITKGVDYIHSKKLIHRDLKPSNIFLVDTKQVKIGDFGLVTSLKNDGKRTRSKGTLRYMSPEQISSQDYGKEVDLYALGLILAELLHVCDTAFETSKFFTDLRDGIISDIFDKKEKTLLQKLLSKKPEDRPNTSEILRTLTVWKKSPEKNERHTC

Row | SMILES | inhibition at 10 µM [1] | IC50 [1] | inhibition at 10 µM [2] | inhibition at 10 µM [3] | solubility (in words) [4] | solubility at 2 h [4] | inhibition at 10 µM [5]
1 | CCn1cc(Nc2ncc3nnn(-c4ccc(C(=O)OC)cc4)c3n2)cn1 [Compound 1, Methyl 4-(5-((1-ethyl-1H-pyrazol-4-yl)amino)-3H-[1,2,3]triazolo[4,5-d]pyrimidin-3-yl)benzoate] | 93% | 119 nM | 14% | 37% | poor | 0.65 µM (≈ 0.237 µg/mL) | 24%
2 | CCOc1ccc(-n2nnc3cnc(Nc4cnn(CC)c4)nc32)cc1 [Compound 2, 3-(4-Ethoxyphenyl)-N-(1-ethyl-1H-pyrazol-4-yl)-3H-[1,2,3]triazolo[4,5-d]pyrimidin-5-amine] | 99% | 39.9 nM | < 10% | 20% | poor | 0.31 µM (≈ 0.109 µg/mL) | < 10%
